This note sets out measurements from patent publication US20240270821A1, “GIP/GLP1/GCG TRI-RECEPTOR AGONISTS AND USES THEREOF” (priority 2023, published 2024).

Assay type in all cases: cell-based
The target of experiment [1] is T1, hGIPR (Homo sapiens, UniProt P48546).
T1 sequence (P48546 22-466): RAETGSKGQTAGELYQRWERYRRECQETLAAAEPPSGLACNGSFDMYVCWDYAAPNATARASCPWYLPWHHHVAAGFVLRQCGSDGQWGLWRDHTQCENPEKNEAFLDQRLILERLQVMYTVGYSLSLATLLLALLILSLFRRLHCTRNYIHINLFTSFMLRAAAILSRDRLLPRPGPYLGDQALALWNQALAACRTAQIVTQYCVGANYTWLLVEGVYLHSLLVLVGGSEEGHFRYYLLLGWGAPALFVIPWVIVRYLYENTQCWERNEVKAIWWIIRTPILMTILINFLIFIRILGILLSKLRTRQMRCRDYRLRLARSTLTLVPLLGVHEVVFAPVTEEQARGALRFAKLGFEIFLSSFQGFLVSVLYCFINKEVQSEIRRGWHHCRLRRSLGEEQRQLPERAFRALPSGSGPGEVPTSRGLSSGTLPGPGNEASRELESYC
The experiment in a line: Functional cAMP activity in the presence of 1% HSA. The note with it: read-out: cAMP Rel EC50, hGIPR.

Experiment [2] has as its target T2, hGLP-1R (Homo sapiens, UniProt P43220). As to the kind of experiment: Functional cAMP activity in the presence of 1% HSA. Particulars: read-out: cAMP Rel EC50, hGLP-1R.
The target of experiment [3] is human GcgR (Homo sapiens, UniProt P47871). As to the kind of experiment: Functional cAMP activity in the presence of 1% HSA. The note with it: read-out: cAMP Rel EC50, hGcgR.
Experiment [4] has as its target T1, hGIPR. The experiment in a line: Functional cAMP activation in the presence of 0.1% casein (no HSA). Particulars: read-out: Relative cAMP EC50, hGIPR.
Experiment [5] addresses T2, hGLP-1R. The experiment is described as above. Particulars: read-out: Relative cAMP EC50, hGLP-1R.
The target in experiment [6] is hGcgR (Homo sapiens, UniProt P47871). Described as above. The note with it: read-out: Relative cAMP EC50, hGcgR.
Where [7] appears, read: in the presence of 0.1% casein (no HSA), geometric mean.
Where [8] appears, read: 0.1% casein, no HSA, geometric mean.
Where [9] appears, read: HEK-293 clonal cell line, in the presence of 1% HSA, geometric mean of relative EC50.

Where two headings read alike, the source gives them in different places. Starred links: 1 amine or outer side, 2 acyl side, 3 side chain; linkers in the order of their positions; H or OH if unused. Non-standard residues stand in square brackets, D forms with d. Residues, ends and D or L forms follow the SMILES beside them. Groups on a side chain read outwards from the residue. No end group written: not given here. *: point of attachment. C18 diacid = O=C(O)CCCCCCCCCCCCCCCCC(=O)*; αMePhe(2-F) = C[C@](N)(Cc1ccccc1F)C(=O)O; γGlu = O=C(O)[C@H](CCC(=O)[*:2])N[*:1]; αMe4Pal = C[C@](N)(Cc1ccncc1)C(=O)O; αMeY = C[C@](N)(Cc1ccc(O)cc1)C(=O)O; 4Pal = N[C@@H](Cc1ccncc1)C(=O)O; αMeL = CC(C)C[C@](C)(N)C(=O)O; αMeS = C[C@](N)(CO)C(=O)O; Orn = NCCC[C@H](N)C(=O)O; AEEA = NCCOCCOCC(=O)O; Aib = CC(C)(N)C(=O)O
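Wherever Relative cAMP EC50, hGIPR is given: intracellular cAMP rise after 30 min at 37 °C read by HTRF against a standard curve, scaled between buffer alone (0%) and top control ligand concentration (100%), four-parameter fit.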
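Wherever Relative cAMP EC50, hGLP-1R is given: intracellular cAMP rise after 30 min at 37 °C read by HTRF, normalized between buffer only (0%) and maximal control ligand (100%), four-parameter variable-slope fit.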
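Wherever Relative cAMP EC50, hGcgR is given: intracellular cAMP rise after 30 min at 37 °C, read by HTRF against a cAMP standard curve, scaled from buffer only (0%) to maximal control ligand response (100%).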

Chain of human GcgR (P47871 26-477): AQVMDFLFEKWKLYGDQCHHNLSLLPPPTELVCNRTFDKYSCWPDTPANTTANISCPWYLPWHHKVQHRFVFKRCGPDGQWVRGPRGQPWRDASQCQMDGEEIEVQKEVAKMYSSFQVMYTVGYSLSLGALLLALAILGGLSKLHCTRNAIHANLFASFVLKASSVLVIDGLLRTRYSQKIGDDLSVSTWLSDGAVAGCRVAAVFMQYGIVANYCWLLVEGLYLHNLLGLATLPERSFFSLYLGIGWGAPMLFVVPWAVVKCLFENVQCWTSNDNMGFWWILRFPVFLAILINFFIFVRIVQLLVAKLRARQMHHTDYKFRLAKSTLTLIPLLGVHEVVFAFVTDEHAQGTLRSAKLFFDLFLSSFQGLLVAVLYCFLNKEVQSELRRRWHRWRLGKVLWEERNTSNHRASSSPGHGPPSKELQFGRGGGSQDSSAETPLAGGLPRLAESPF
Chain of hGcgR (P47871 26-477): as above
T2 sequence (P43220 24-463): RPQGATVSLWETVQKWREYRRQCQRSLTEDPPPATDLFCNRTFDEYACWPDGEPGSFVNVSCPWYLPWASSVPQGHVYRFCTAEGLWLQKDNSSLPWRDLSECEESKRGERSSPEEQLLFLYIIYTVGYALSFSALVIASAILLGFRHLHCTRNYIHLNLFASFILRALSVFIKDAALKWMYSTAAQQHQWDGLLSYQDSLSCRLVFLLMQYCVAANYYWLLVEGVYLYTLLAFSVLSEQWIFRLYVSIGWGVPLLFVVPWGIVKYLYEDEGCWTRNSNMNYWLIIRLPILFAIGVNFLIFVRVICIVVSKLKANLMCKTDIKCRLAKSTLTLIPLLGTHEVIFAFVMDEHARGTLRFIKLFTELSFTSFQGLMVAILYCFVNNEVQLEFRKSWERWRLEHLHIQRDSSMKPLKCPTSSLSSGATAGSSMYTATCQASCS

What is called EC50 is the concentration needed to bring the measured effect to its halfway point. With “H-Y[Aib]QGTFTSDFSK[αMeL]LDKK([AEEA-γGlu-C18 diacid])AQ[Aib]AFIEYLLEGGPSSGAPPPSEG[AEEA]-NH2 [Example 56]”, the EC50 was found to be 30.3 nM in experiment [1]; 167 nM in experiment [2]; 265 nM in experiment [3]; 0.315 nM in experiment [4] (setting [7]); 4.07 nM in experiment [5] (setting [7]); 2.8 nM in experiment [6] (setting [7]).

As for “H-Y[Aib]QGT[αMePhe(2-F)]TSD[4Pal]SI[αMeL]LD[Orn]K([AEEA-γGlu-C18 diacid])AQ[αMe4Pal][Orn]FI[dE][αMeY]LIEGGPSSGEPPPESE-NH2 [Example 677]”, the EC50 turned out to be 1.03 nM in experiment [1]; 20.8 nM in experiment [2]; 190 nM in experiment [3]; 0.0111 nM in experiment [4]; 0.252 nM in experiment [5]; 2.21 nM in experiment [6].

Turning to “H-Y[Aib]QGT[αMePhe(2-F)]TSD[4Pal]SILLDKK([γGlu-γGlu-C18 diacid])AQ[Aib]AFIEYLEEGGPSSGAPPPSGEEE-NH2 [Example 611]”, the EC50 in experiment [1] was 7.35 nM; in experiment [2], 146 nM; in experiment [3], 627 nM; in experiment [4], 0.126 nM; in experiment [5], 1.63 nM; in experiment [6], 6.8 nM.

Regarding “Y[Aib]QGT[αMePhe(2-F)]TSD[4Pal][αMeS]I[αMeL]LD[Orn]K([AEEA-γGlu-C18 diacid])AQ[αMe4Pal]EFI[dQ][αMeY]LIEGGPSSGAPPPSGS-NH2 [Example 1202]”, the EC50 in experiment [1] came out at 0.471 nM; in experiment [2] it was 23.1 nM; in experiment [3], 70.3 nM; in experiment [4] (setting [8]) it was 0.00635 nM; in experiment [5] (setting [8]), 0.237 nM; in experiment [6] (setting [8]), 0.5 nM.

As for `CC[C@H](C)[C@H](NC(=O)[C@H](Cc1ccccc1)NC(=O)[C@H](C)NC(=O)C(C)(C)NC(=O)[C@H](CCC(N)=O)NC(=O)[C@H](C)NC(=O)[C@H](CCCCNC(=O)COCCOCCNC(=O)COCCOCCNC(=O)CC[C@H](NC(=O)CCCCCCCCCCCCCCCCC(=O)O)C(=O)O)NC(=O)[C@H](CCCCN)NC(=O)[C@H](CC(=O)O)NC(=O)[C@H](CC(C)C)NC(=O)[C@H](CC(C)C)NC(=O)[C@@H](NC(=O)[C@](C)(CO)NC(=O)[C@H](Cc1ccc(O)cc1)NC(=O)[C@H](CC(=O)O)NC(=O)[C@H](CO)NC(=O)[C@@H](NC(=O)[C@](C)(Cc1ccccc1F)NC(=O)[C@@H](NC(=O)CNC(=O)[C@H](CCC(N)=O)NC(=O)C(C)(C)NC(=O)[C@@H](N)Cc1ccc(O)cc1)[C@@H](C)O)[C@@H](C)O)[C@@H](C)CC)C(=O)N[C@@H](CCC(=O)O)C(=O)N[C@@H](Cc1ccc(O)cc1)C(=O)N[C@@H](CC(C)C)C(=O)N[C@@H](CCC(=O)O)C(=O)N[C@@H](CCC(=O)O)C(=O)NCC(=O)NCC(=O)N1CCC[C@H]1C(=O)N[C@@H](CO)C(=O)N[C@@H](CO)C(=O)NCC(=O)N[C@@H](CCC(=O)O)C(=O)N1CCC[C@H]1C(=O)N1CCC[C@H]1C(=O)N1CCC[C@H]1C(=O)N[C@@H](CCC(=O)O)C(N)=O` [Example 469] (H-Y[Aib]QGT[αMePhe(2-F)]TSDY[αMeS]ILLDKK([AEEA-AEEA-γGlu-C18 diacid])AQ[Aib]AFIEYLEEGGPSSGEPPPE-NH2), the EC50 was determined as 4.24 nM in experiment [1]; 61.7 nM in experiment [2]; 155 nM in experiment [3]; 0.031 nM in experiment [4]; 0.562 nM in experiment [5]; 1.34 nM in experiment [6].

Take “H-Y[Aib]QGTFTSD[4Pal]SQ[αMeL]LD[Orn]K([γGlu-γGlu-C18 diacid])AQ[αMe4Pal]AFIE[αMeY]LIEGGPSSGAPPPSGSEE-NH2 [Example 1043]”: the EC50 worked out at 44.9 nM in experiment [1]; 268 nM in experiment [2]; 2240 nM in experiment [3]; 0.282 nM in experiment [4] (setting [7]); 1.52 nM in experiment [5] (setting [7]); 17.1 nM in experiment [6] (setting [7]).

“Y[Aib]QGTFTSD[4Pal]SQ[αMeL]LDKK([AEEA-γGlu-C18 diacid])AQ[Aib]AFIEYLLE[dA]GPSSGAPPPSG[4Pal]-NH2 [Example 822]”: the EC50 in experiment [1] amounted to 18.1 nM; in experiment [2], 322 nM; in experiment [3], 2100 nM; in experiment [4] (setting [7]), 0.186 nM; in experiment [5] (setting [7]), 2.51 nM; in experiment [6] (setting [7]) it was 11.6 nM.

With “H-Y[Aib]QGTFTSD[4Pal]SQ[αMeL]LDKK([AEEA-γGlu-C18 diacid])AQ[αMe4Pal]AFIE[αMe4Pal]LIEGGPSSGAPPPSGS-NH2 [Example 948]”, the EC50 in experiment [1] came to 22.9 nM; in experiment [2], 304 nM; in experiment [3], 537 nM; in experiment [4] (setting [7]), 0.17 nM; in experiment [5] (setting [7]) it was 2.67 nM; in experiment [6] (setting [7]), 2.89 nM.

Regarding “Y[Aib]QGTFTSD[4Pal]SQ[αMeL]LDKK([AEEA-γGlu-C18 diacid])AQ[αMe4Pal]AFIE[αMeY]LIEGGPSSGAPPPEGS-NH2 [Example 852]”, the EC50 in experiment [1] stood at 45.6 nM; in experiment [2] it was 182 nM; in experiment [3], 1230 nM; in experiment [4] (setting [7]), 0.34 nM; in experiment [5] (setting [7]) it was 0.871 nM; in experiment [6] (setting [7]), 2.26 nM.

As to “H-Y[Aib]QGTFTSDFS[Orn][αMeL]LDKK([γGlu-AEEA-γGlu-C18 diacid])AQ[Aib]AFIEYLLE[Aib]GHSSGAPPPSGS-NH2 [Example 245]”, the EC50 in experiment [1] was determined as 10.5 nM; in experiment [2], 540 nM; in experiment [3], 1120 nM; in experiment [4] (setting [7]), 0.0684 nM; in experiment [5] (setting [7]), 5.99 nM; in experiment [6] (setting [7]), 7.07 nM.

On to “H-Y[Aib]QGTFTSDFS[Orn][αMeL]LDKK([AEEA-γGlu-C18 diacid])AQ[Aib]AFIEWLLEGGESSGEPPPSGE-NH2 [Example 123]”, for which the EC50 in experiment [1] was 94.6 nM; in experiment [2], 1500 nM; in experiment [3], 1740 nM; in experiment [4] (setting [7]) it was 0.531 nM; in experiment [5] (setting [7]), 4.82 nM; in experiment [6] (setting [7]), 4.55 nM.

Take “H-Y[Aib]QGTFTSD[4Pal]SQ[αMeL]LDKK([γGlu-γGlu-C18 diacid])AQ[αMe4Pal]AFIEYLIE[Aib]GPSSGAPPPSGTGE-NH2 [Example 1127]”: the EC50 worked out at 7.72 nM in experiment [1] (setting [9]); 234 nM in experiment [2] (setting [9]); 425 nM in experiment [3] (setting [9]); 0.167 nM in experiment [4] (setting [7]); 6.16 nM in experiment [5] (setting [7]); 5.95 nM in experiment [6] (setting [7]).

Take “H-Y[Aib]QGT[αMePhe(2-F)]TSD[4Pal][αMeS]I[αMeL]LD[Orn]K([γGlu-γGlu-C18 diacid])AQ[αMe4Pal]EFI[dE][αMeY]LIEGGPSSGAPPPSGGGEE-NH2 [Example 1218]”: the EC50 in experiment [1] came to 0.626 nM; in experiment [2] it was 48.7 nM; in experiment [3], 185 nM; in experiment [4] (setting [8]), 0.00839 nM; in experiment [5] (setting [8]), 0.58 nM; in experiment [6] (setting [8]), 1.88 nM.

On to “H-Y[Aib]QGTFTSDFSK[αMeL]LDKK([AEEA-AEEA-γGlu-C18 diacid])AQ[Aib]AFIEYLLEGGPSSGAPPPSGS-NH2 [Example 142]”, for which the concentration giving a half-maximal response (EC50) in experiment [1] turned out to be 14.1 nM; in experiment [2] it was 391 nM; in experiment [3] it was 1230 nM; in experiment [4] (setting [7]), 0.216 nM; in experiment [5] (setting [7]), 4.37 nM; in experiment [6] (setting [7]) it was 3.49 nM.

For “H-Y[Aib]QGT[αMePhe(2-F)]TSD[4Pal][αMeS]I[αMeL]LD[Orn]K([γGlu-γGlu-C18 diacid])AQ[Aib][Orn]FI[dE][αMeY]LAEGGPSSGEPPPSGTGE-NH2 [Example 545]”, the EC50 turned out to be 2.74 nM in experiment [1]; 40.2 nM in experiment [2]; 180 nM in experiment [3]; 0.0432 nM in experiment [4]; 0.602 nM in experiment [5]; 2.71 nM in experiment [6].
